These results are taken from patent US12076401B2, “Benzamide and active compound compositions and methods of use” (TRANSLATIONAL DRUG DEVELOPMENT, LLC, priority 2015, dated 2024).

The nature of data set [1]: Pharmacokinetic studies, plasma of healthy mice. The note with it: mouse; for AUC: plasma, 5 mg/kg oral (PO); for Half-life: 1.0 mg/kg IV; for AUC0-∞: 5.0 mg/kg PO. The class given is in vivo. As to the method:
Plasma samples were collected from healthy mice and analyzed for levels of compound ID #24, ID #25, and ID #26 and reported in Table 6. In brief, compounds were individually and accurately weighed out to produce a stock solution in Dimethyl-sulfoxide (DMSO) at a concentration of 2 mg/mL and stored at −20° C. From the stock solution, a working stock was prepared by diluting it in Methanol-Water 50:50 (v/v) at 20 μg/mL for calibration curve preparation and stored at 4° C. Standards used for quantitation and quality control samples (QC's) were prepared on the same day of sample processing using blank plasma obtained from non-treated mice. For each analyte, standards were prepared through serial dilution of the working stock at concentrations of 0.1, 0.5, 1.0, 10, 50, 100, 500 and 1000 ng/mL; QC's were prepared at intermediate concentrations of 0.75, 7.5, 75 and 750 ng/mL. Plasma samples were stored at −80° C. until ready for analysis and then placed on ice for thawing. An aliquot of 20 μL for samples, standards and QC's, were transferred into a 96-well extraction plate according to a pre-defined layout. Appropriate volume of Methanol-Formic Acid 99.9-0.1 containing internal standard (Verapamil at 25 ng/mL) was added to each well and samples were extracted under vacuum. Eluent was then transferred into a LCMS plate for analysis using a suitable column for separation and MRM detection. Concentration of analytes was calculated based on the calibration curve and analyzed for pharmacokinetic parameters by using Non-compartmental analysis (NCA) using WinNonlin Phoenix software. Parameters such as Cmax, Tmax, half-life, AUC(0-last), AUC(0-∞), volume of distribution (Vss) and clearance (Cl/F) were reported.
The analogs were tested for pharmacokinetic analysis in the mouse with doses of 1 mg/kg for intravenous (IV) route and 5 mg/kg for oral (PO) route. […] Overall exposure following IV dose also favored compound ID #24 with AUC0-∞ 1488.1 hr*ng/mL whereas compound ID #25 and ID #26 were 329.1 and 1193.7 hr*ng/mL, respectively.

For data set [2] the following is noted: cited from earlier work.
In the next data set the test system is cancer cell models. The note with it: cited from earlier work.
The subject of the next data set is MC-38. Description: MC-38 murine colon tumor volume growth. The class given is in vivo. The note with it: 150.00 mg/kg PO QD to end, in mm³. As for the experimental part:
• Group 1 Isotype Control 5.00 mg/kg+Compound ID #24 Vehicle • Group 3 Compound ID #24 150.00 mg/kg • Group 4 anti-mGITR 5.00 mg/kg • Group 6 anti-mGITR 5.00 mg/kg+Compound ID #24 150.00 mg/kg

In a further data set the test system is U266. Description: CellTiter-Glo cell viability, U266 (Myeloma). Format: cell-based. As for the experimental part:
Compound ID #24 (a compound of formula (I)) and Compound ID #26 (a compound of formula (II)) were tested for the inhibition of cancer cell proliferation. Cell viability in the presence of varying concentrations of Compound ID #24 and Compound ID #26 at different time points was used to assess cytotoxicity and the effect of the compounds on cell proliferation. The data clearly show the surprising and unexpected increased anti-cancer activity associated with Compound ID #24 compared to Compound ID #26.
Cell Viability Assay—Cell viability was measured by the CellTiter-Glo® cell viability assay Promega (Madison, Wis.). The CellTiter-Glo® Luminescent Cell Viability Assay is a homogeneous method to determine the number of viable cells in culture based on quantitation of the ATP present, which signals the presence of metabolically active cells. Following treatment, CellTiter-Glo® is added to treatment wells and incubated at 37° C. luminescence values were measured at using a Molecular Devices Spectramax microplate reader.
Single Agent Studies—Cells were grown to 70% confluency, trypsinized, counted, and seeded in 96 well flat-bottom plates at a final concentration of 2.5×10^3-5×10^3 cells/well (Day 0). Cells were allowed to incubate in growth media for 24 hours. […] Viable cell numbers are quantified by the CellTiter-Glo® cell viability assay as described above. […]

The test system of the next data set is CT-26. The data set is described as follows: CT-26 murine colon tumor volume growth. The class given is in vivo. The settings on record: 150.00 mg/kg PO QD to end + Isotype Control 0.05 mg/kg IP QDx1, in mm³. As for the experimental part:
• Group 1 Isotype Control+Compound ID #24 Vehicle Control • Group 2 Isotype Control+Compound ID #24 • Group 3 Anti-m4-1BB 0.05 mg/kg • Group 4 Anti-m4-1BB 0.10 mg/kg • Group 5 Anti-m4-1BB 0.05 mg/kg+Compound ID #24

In data set [3] the test system is intratumoral CD8 T-cells and natural killer cells. Description: Intratumoral immune cells in tumor bearing mice. The class given is in vivo.
In data set [4] the test system is MM1.S human myeloma cells. Description: Human MM1.S myeloma xenograft, single agent screening. Format: in vivo. The note with it: female athymic nude mice; 100 mg/kg daily for 19 days, oral gavage. An excerpt:
Body weights and tumor measurements were collected twice weekly.
On the technique in general: Xenograft models place foreign cells or tissue in a host animal.

Several values for one entry are separate records, joined by “and”; a condition that tells them apart may be missing. Identical values can stand only once. Like-named read-outs stand apart in the source and are kept apart here.

As usually defined, the AUC is concentration integrated over time. Low readings indicate low exposure, high ones high exposure. Regarding `O=C(NO)c1ccc(Nc2nc3ccccc3n2C2CCCCCC2)cc1` [Compound ID #26, 4-(1-cycloheptyl-1H-benzo[d]imidazol-2-ylamino)-N-hydroxybenzamide], the AUC in data set [1] amounted to 1650 ng·h/mL.
As to `Nc1ncn([C@@H]2O[C@H](CO)[C@@H](O)[C@H]2O)c(=O)n1` [Azacitidine, 4-amino-1-β-D-ribofuranozyl-s-triazin-2(1H)-one], the Solubility result in data set [2] (acetone, ethanol and methyl ketone) is recorded as “insoluble”; in data set [2] (dimethylsulfoxide (DMSO)) it was “soluble”; in data set [2] (ethanol/water (50/50), propylene glycol and polyethylene glycol), “slightly soluble”; in data set [2] (water, water-saturated octanol, 5% dextrose in water, N-methyl-2-pyrrolidone, normal saline and 5% Tween 80 in water), “sparingly soluble”.
As to `Nc1ncn([C@H]2C[C@H](O)[C@@H](CO)O2)c(=O)n1` [Decitabine, 4-amino-1-(2-deoxy-β-D-erythro-pentofuranosyl)-1,3,5-triazin-2(1H)one], the Solubility entry in data set [2] (dimethylsulfoxide (DMSO)) was “soluble”; in data set [2] (ethanol/water (50/50), methanol/water (50/50) and methanol), “slightly soluble”; in data set [2] (water), “sparingly soluble”. Besides, in the data set with cancer cell models (Palii et al. 2008), the “cell cycle, clonogenic survival and growth in cells” value is “causes G2 arrest, reduces clonogenic survival, and inhibits growth in cells”. The “effect on growth and apoptosis of cancer cell models” value in the data set on cancer cell models (through re-expression of silenced genes) was “suppression of growth and apoptosis”.
Consider `O=C(NO)c1ccc(Nc2nc3ccccc3n2C2CCCCC2)cc1` [Compound ID #25, 4-(1-cyclohexyl-1H-benzo[d]imidazol-2-ylamino)-N-hydroxybenzamide], for which, in data set [1], the Half-life stood at 1.20 h, the “AUC0-∞” value was determined as 1277.26 ng·h/mL and the AUC was 1280 ng·h/mL.
Regarding `O=C(NO)c1ccc(Nc2nc3ccccc3n2CC2CCCCC2)cc1` [Compound ID #24, 4-(1-(cyclohexylmethyl)-1H-benzo[d]imidazol-2-ylamino)-N-hydroxybenzamide], the “Tumor volume, Mean” value is given as 94.5 in the data set on MC-38 (Day 1); 141.8 in the data set with MC-38 (Day 6); 154.8 with MC-38 (Day 9); 187.8 in the data set with MC-38 (Day 12); 235.9 with MC-38 (Day 15); 285.2 with MC-38 (Day 19). Also, the “Tumor volume, Mean” value is reported as 389.1 in the data set with MC-38 (Day 22); 566.5 in the data set on MC-38 (Day 26); 714.8 with MC-38 (Day 29); 122.0 in the data set on CT-26 (Day 1); 165.5 with CT-26 (Day 5); 215.2 with CT-26 (Day 8). Moreover, the figures for the “Tumor volume, Mean” value in the data set with CT-26 (Day 9), with CT-26 (Day 12) and in the data set with CT-26 (Day 14) were 241.8, 307.4 and 382.7, respectively. The “Tumor volume, Median” value in the data set with MC-38 (Day 1) is 92.2; in the data set on MC-38 (Day 6), 137.6; in the data set on MC-38 (Day 9), 148.0; with MC-38 (Day 12), 190.0; in the data set with MC-38 (Day 15), 251.8; in the data set with MC-38 (Day 19) it was 289.3. Besides, the “Tumor volume, Median” value with MC-38 (Day 22) was 397.8; in the data set with MC-38 (Day 26) it was 540.0; in the data set on MC-38 (Day 29) it was 646.1; in the data set with CT-26 (Day 1), 113.8; in the data set on CT-26 (Day 5), 144.8; in the data set on CT-26 (Day 8), 208.7. Also, the entries for the “Tumor volume, Median” value in the data set on CT-26 (Day 9), with CT-26 (Day 12) and in the data set on CT-26 (Day 14) were 245.2, 285.7 and 352.6, respectively. Besides, the “Tumor volume, individual animals” value in the data set with MC-38 (Day 1) was 68 and 81 and 103 and 128 and 92; in the data set with MC-38 (Day 6), 72 and 92 and 138 and 231 and 176; in the data set with MC-38 (Day 9) it was 83 and 121 and 148 and 240 and 182; in the data set with MC-38 (Day 12) it was 123 and 158 and 222 and 248; in the data set on MC-38 (Day 15), 135 and 213 and 290 and 305; in the data set with MC-38 (Day 19), 178 and 289 and 388. Besides, the “Tumor volume, individual animals” value in the data set on MC-38 (Day 22) was 244 and 398 and 526; with MC-38 (Day 26) it was 370 and 540 and 789; in the data set with MC-38 (Day 29), 495 and 646 and 1,003; with CT-26 (Day 1), 106 and 85 and 156 and 149 and 114; in the data set with CT-26 (Day 5) it was 131 and 73 and 299 and 158; in the data set with CT-26 (Day 8), 176 and 65 and 378 and 242. Besides, the “Tumor volume, individual animals” value was 198 and 65 and 412 and 292 with CT-26 (Day 9); 212 and 68 and 590 and 359 in the data set on CT-26 (Day 12); 254 and 67 and 758 and 452 in the data set on CT-26 (Day 14). Further, the “Improvement ID#24 over ID#26 Fold Change” value in the data set on U266 is given as 3.50. This compound also gave a Half-life in data set [1] of 3.70 h. For the same compound, the “AUC0-∞” value in data set [1] was 3974.82 ng·h/mL. In data set [1], this compound returned an area under the curve (AUC) of 3970 ng·h/mL. In data set [3], the “numbers of intratumoral CD8 T-cells and natural killer cells” value is “increased numbers of intratumoral CD8 T-cells and natural killer cells”. The “anticancer activity (tumor volume)” value in data set [4] is “significantly superior anticancer activity when compared to either Compound ID #25 or Compound ID #26”.
